According to PMC8156206, “Novel N,N′-Disubstituted Selenoureas as Potential Antioxidant and Cytotoxic Agents” (Antioxidants, 2021):
Like-named read-outs stand apart in the source and are kept apart here.

Experiments:
[1] = DPPH radical scavenging assay; settings: for DPPH radical scavenging kinetics: 0.03 mg/mL, time-point 0 min
Description: (§1) From all the methods available for the prediction of the antioxidant properties, DPPH^● and ABTS^●+ assays were chosen according to their simplicity, accessibility, and effectiveness for a fast prediction of radical scavenging activities in vitro. The radical scavenging capacity of the novel selenoureas was determined by DPPH^● and ABTS^●^+ assays. Measurements were recorded on a BioTeck PowerWave XS spectrophotometer (BioTeck Instruments, Winooski (VT), USA) and the data were collected using KCJunior software (BioTeck Instruments, Winooski (VT), USA).
A DPPH assay was performed, as described by Svinyarov. Stock solutions of 1 mg/mL were initially prepared for each selenourea in methanol and this solution was used for the preparation of the different concentrations employed in the assay. Ascorbic acid (Asc) was used as positive control due to the literature reports that this derivative is a potent antioxidant and radical scavenger. A volume of 100 µL from a previously prepared stock solution (preserved in dark and daily prepared) of DPPH (100 µM) in methanol were added to 100 µL of the methanolic selenoureas solutions prepared previously, and the antioxidant activity these compounds was assessed by its ability to decolorize DPPH● radical (purple color in methanol) to DPPHH (colorless). Thus, radical scavenging activity was estimated by the decrease in the absorbance at 517 nm. Determinations were recorded at different time-points. All the measurements were carried out in triplicate. Results are expressed as the percentage of the radicals scavenged, calculated using the following formula:(1) % DPPH radical scavenging=Acontrol − Asample/Acontrol × 100 where Acontrol refers to the absorbance of the negative control and Asample refers to the absorbance of the tested compounds. Results are expressed as percentage of DPPH radical scavenging ± SD.
In order to determine the radical scavenging of these newly synthesized selenourea derivatives, the DPPH assay was firstly employed. Measurements were performed at four different concentrations ranging from 0.0003 to 0.03 mg/mL, and collected at time-points between 0 min and 120 min (Figures S81–S100). Results are presented as the percentage of inhibition for DPPH radical scavenging activity.

[2] = test system: MCF-7 cells (breast adenocarcinoma); assay: MTT cell viability assay, MCF-7; format: cell-based, human; settings: for IC50 / viability at 10 µM / viability at 50 µM: Homo sapiens; for IC50: read-out: IC50 MCF-7 (breast); for viability at 10 µM / viability at 50 µM: read-out: cell viability, percentage of live cells; for SI (selectivity index) breast: IC50 (184B5)/IC50 (MCF-7)
Description: (§2) Cell lines were purchased from the American Type Culture Collection (ATCC). MCF-7, HTB-54, BEAS-2B and 184B5 cell lines were grown in RPMI 1640 medium (Gibco) supplemented with 10% fetal bovine serum (FBS; Gibco), 100 units/mL penicillin, and […] streptomycin (Gibco). HT-29 and HCT-116 cell lines was cultured in McCoy’s 5A (Gibco), 10% FBS, 100 units/mL penicillin, and 100 μg/mL streptomycin. Cells were maintained at 37 °C and 5% CO2. Culture medium was replaced every three days.
(§3) A cell viability assay of each compound was carried out using an MTT assay. Each selenourea was dissolved in dimethyl sulfoxide (DMSO) at a concentration of 0.01 M. Serial dilutions were prepared with non-supplemented culture medium. Cytotoxic activity of each selenourea was determined at two different concentrations (10 and 50 µM) in MCF-7, HTB-54, and HT-29 cells. In addition, selected compounds were tested at seven different concentrations (0.1, 1, 5, 10, 25, 50, 100 µM) on MCF-7, HT-29, HCT-116, HTB-54, 184B5, and BEAS-2B cells. The number of passages before defrosting the cells was 3, and they were kept under culture up to a maximum of 15.
(§4) Briefly, 1 × 10^4 cells/well were grown in 96-well plates for 24 h. Then, these cells were incubated with either DMSO (negative control) at 5 µM or a different concentration of each tested selenourea for 48 h. A volume of 20 µL of MTT was added 150 min before the termination point to measure cellular viability. After this time, culture medium was removed. The resultant formazan crystals were dissolved in 50 µL of DMSO, and absorbance was measured at 570 nm. Results are expressed as IC50, the half maximal inhibitory concentration. This value was calculated using GraphPad Prism 7 software by nonlinear curve fitting. Furthermore, the selectivity index (SI) was calculated as the ratio of the IC50 values determined for the non-malignant and the tumoral cells (IC50 (184B5)/IC50 (MCF-7) or (IC50 (BEAS-2B)/IC50 (HTB-54). Data were obtained from at least three independent experiments performed in triplicates.
(§5) The cytotoxic effects of synthesized compounds were evaluated against three human cancer cell lines: breast adenocarcinoma (MCF-7), lung adenocarcinoma (HTB-54), and colon carcinoma (HT-29), using a 3-[4,5-dimethylthiazol-2-yl]-2,5-diphenyltetrazolium bromide (MTT) assay. Firstly, the compounds were screened at two doses (50 and 10 µM) and after 48 h of treatment. The results are summarized in Figure 4 and are presented as percentages of growth inhibition related to control.

[3] = test system: HTB-54 cells (lung adenocarcinoma); assay: MTT cell viability assay, HTB-54; format: cell-based, human; settings: for IC50 / viability at 10 µM / viability at 50 µM: Homo sapiens; for IC50: read-out: IC50 HTB-54 (lung); for viability at 10 µM / viability at 50 µM: read-out: cell viability, percentage of live cells
Description: as §2, §3, §4, §5

[4] = test system: HT-29 cells (colon carcinoma); assay: MTT cell viability assay, HT-29; format: cell-based; settings: Homo sapiens; for IC50: read-out: IC50 HT-29 (colon); for viability at 10 µM / viability at 50 µM: read-out: cell viability, percentage of live cells
Description: as §2, §3, §4, §5

[5] = test system: BEAS-2B cells (lung non-malignant derived cell line); assay: MTT cell viability assay, BEAS-2B; format: cell-based; settings: Homo sapiens, 48 h, mean ± SD
Description: as §2, §3, §4

[6] = ABTS radical scavenging assay; settings: 0.003 mg/mL, 60 min
Description: as §1
As well as DPPH, ABTS radical scavenging assay is a colorimetric method. ABTS (2,2′-azino-bis(3-ethylbenzothiazoline-6-sulfonic acid) was dissolved in deionized water at 1 mg/mL and oxidized to ABTS^●+ with potassium persulfate (2.45 mM final concentration). This oxidation process is not instantaneous, and the reaction mixture was kept in the dark overnight at room temperature. After ABTS^●+ radical was generated, the ABTS^●+ solution was diluted with 50% ethanol until an absorbance of 0.70 ± 0.02 at 734 nm for measurements was achieved. Stock solution of 1 mg/mL in absolute ethanol was prepared for each selenourea, and different dilutions were prepared to reach the final concentration, when 20 µL of this solution were added to 180 µL of the diluted ABTS^●+. The absorbance at 734 nm was recorded using 50% ethanol as blank. Trolox and Asc were used as positive controls. All determinations were carried out in triplicate. Same time intervals as in the DPPH assay were also measured. The ability to scavenge ABTS^●+ was calculated using the following formula:(2) % ABTS radical scavenging=Acontrol − Asample/Acontrol × 100 where Acontrol refers to the absorbance of the negative control and Asample refers to the absorbance of the tested compounds. The results are expressed as percentage of ABTS radical scavenging ± SD.
In order to confirm the antioxidant activity of the selenoureas, we performed an additional ABTS (2,2′-azino-bis(3-ethylbenzothiazoline-6-sulfonic acid) radical scavenging assay. Following the results obtained in the DPPH assay, this experiment was performed at 0.03 and 0.003 mg/mL. Measurements were recorded after 0′, 6′ and 60′ of incubation with ABTS. For comparison purposes, Trolox and ascorbic acid were used as references. The remarkable results are summarized in Figure 3.

HCT-116 cells (colon) = assay: MTT cell viability assay, HCT-116; format: cell-based; settings: Homo sapiens, read-out: IC50 HCT-116 (colon)
Description: as §2, §3, §4

[7] = test system: 184B5 cells (breast non-malignant derived cell line); assay: MTT cell viability assay, 184B5; format: cell-based; settings: Homo sapiens, read-out: IC50 184B5 (breast, non-malignant)
Description: as §2, §3, §4

[8] = Stability of the selenoureas before screening; format: physicochemical

| Compound | IC50 ([2]; MCF7, 48 h, MTT, mean ± SD) [µM] | viability at 10 µM ([2]; MCF7, MCF-7, 10 µM, 48 h, MTT) [%] | viability at 50 µM ([2]; MCF7, MCF-7, 50 µM, 48 h, MTT) [%] | IC50 ([3]; HTB-54, 48 h, MTT, mean ± SD) [µM] | viability at 10 µM ([3]; HTB-54, 10 µM, 48 h, MTT) [%] | viability at 50 µM ([3]; HTB-54, 50 µM, 48 h, MTT) [%] | IC50 ([4]; HT-29, 48 h, MTT, mean ± SD) [µM] | viability at 10 µM ([4]; HT-29, 10 µM, 48 h, MTT) [%] | viability at 50 µM ([4]; HT-29, 50 µM, 48 h, MTT) [%] | melting point [°C] | stability of the compound before screening [8] | other results |
| --- | --- | --- | --- | --- | --- | --- | --- | --- | --- | --- | --- | --- |
| Clc1ccc(NC(=[Se])NCc2nccs2)cc1 [Compound 2d] | > 10 | 59.7 | 35 | 8.65 ± 0.29 | 45.8 | 37.2 | > 10 | 77.2 | 67.1 | 165 |  | DPPH radical scavenging capacity compared with ascorbic acid ([1]; at lower concentrations): greater radical scavenging capacity than ascorbic acid; SI (selectivity index) lung ([3]; IC50 (BEAS-2B)/IC50 (HTB-54)): 0.60; IC50 [5]: 5.22 ± 0.07 µM |
| [Se]=C(Nc1ccccc1)NC12CC3CC(CC(C3)C1)C2 [Compound 6a, N´-adamantyl-N-(phenyl)selenourea] |  |  |  |  |  |  |  |  |  | 161 |  | ABTS radical scavenging activity compared with Trolox [6]: significant lower radical scavenging activity than Trolox; IC50 ([2]; MCF7, 48 h): 9.88 ± 1.46 µM; viability at 10 µM ([2]; MCF7, 48 h): 54.3%; viability at 50 µM ([2]; MCF7, 48 h): 18.2%; SI (selectivity index) breast [2]: 2.25; IC50 ([3]; HTB-54, 48 h): > 10 µM; viability at 10 µM ([3]; HTB-54, 48 h): 51.9%; viability at 50 µM ([3]; HTB-54, 48 h): 15.7%; IC50 ([4]; HT-29, 48 h): 5.03 ± 3.06 µM; viability at 10 µM ([4]; HT-29, 48 h): 43%; viability at 50 µM ([4]; HT-29, 48 h): 33.9%; IC50 (HCT-116 cells (colon); HCT-116, 48 h): 5.69 ± 0.71 µM; IC50 ([7]; 184B5, 48 h): 22.2 ± 4.07 µM |
| Clc1ccc(NC(=[Se])NCc2ccco2)cc1 [Compound 1d] | > 10 | 78.2 | 27.9 | > 10 | 52.2 | 27.3 | 8.07 ± 3.77 | 48.6 | 35 | 128 |  | IC50 (HCT-116 cells (colon); HCT-116, 48 h, MTT, mean ± SD): 7.8 ± 0.56 µM |
| CCCCNC(=[Se])Nc1ccc(C)cc1 [Compound 4b] |  |  |  |  |  |  |  |  |  | 46 | decomposed before screening |  |
| CCCCNC(=[Se])Nc1ccc(OC)cc1 [Compound 4c] |  |  |  |  |  |  |  |  |  | 89 | decomposed before screening |  |
| CCCCCCNC(=[Se])Nc1ccc(C)cc1 [Compound 5b] |  |  |  |  |  |  |  |  |  | 88 | decomposed before screening |  |
| [Se]=C(NCc1nccs1)Nc1ccccc1 [Compound 2a] | 9.16 ± 3.49 | 41 | 42.8 | > 10 | 51.1 | 45.7 | > 10 | 79.7 | 47.3 | 149 |  | DPPH radical scavenging kinetics [1]: reaching the maximum activity at time-point 0′; SI (selectivity index) breast [2]: 1.20; IC50 ([7]; 184B5, 48 h, MTT, mean ± SD): 11 ± 0.73 µM |
| N#Cc1ccc(NC(=[Se])Nc2ccc3oc(=O)ccc3c2)cc1 [Compound 3e] |  | 59.7 | 31.1 |  | 60.8 | 17.8 |  | 66.6 | 32.2 | 140 |  | DPPH radical scavenging kinetics [1]: reaching the maximum activity at time-point 0′; ABTS radical scavenging activity compared with Trolox [6]: significant lower radical scavenging activity than Trolox |
| O=c1ccc2cc(NC(=[Se])Nc3ccccc3)ccc2o1 [Compound 3a] | > 10 | 53.5 | 29.8 | > 10 | 66 | 10.3 | 6.49 ± 1.58 | 47.5 | 30.2 | 169 |  | DPPH radical scavenging kinetics [1]: reaching the maximum activity at time-point 0′; IC50 (HCT-116 cells (colon); HCT-116, 48 h, MTT, mean ± SD): 5.86 ± 0.52 µM |
| CCCCNC(=[Se])Nc1ccccc1 [Compound 4a] |  |  |  |  |  |  |  |  |  | 69 | decomposed before screening |  |
| CCCCCCNC(=[Se])Nc1ccccc1 [Compound 5a] |  |  |  |  |  |  |  |  |  | 59 | decomposed before screening |  |
